According to US8440633B2, “Anthelmintic combination” (AH USA 42 LLC, priority 2007, dated 2013):

Tests used:
Assay type in all cases: in vivo
Haemonchus contortus = assay: Total worm count, resistant strains in sheep (Example 3); conditions: for % efficacy (arithmetic mean): doses as the 6th table, Day 15
Method: (§1) Sheep were artificially infected with infective L3 larvae in a mixed culture containing Haemonchus contortus, Teladorsagia spp and Trichostrongylus spp, and efficacy was measured by total worm counts in the treatment group compared to the control group following administration of treatment. The animals were treated as outlined below with the commercially available reference products included to confirm the resistance profile of the above parasites.
(§2) All study animals were necropsied on Day 15 after treatment. Abomasa and small intestines were collected for worm recovery and total worm count estimations.

Trich. colubriformis = assay: as above; conditions: for % efficacy (arithmetic mean): doses as the 6th table, Day 15
Method: as §1, §2

Teladorsagia spp (total) = assay: as above; conditions: for % efficacy (arithmetic mean): doses as the 6th table, Day 15, NEG = negative efficacy
Method: as §1, §2

[1] = test system: Teladorsagia circumcincta; assay: Total worm count, resistant strains in sheep (Example 2); conditions: for % efficacy (arithmetic mean): doses as the 4th table, Day 15, NEG = negative efficacy, mean count higher than control
Method: (§3) Sheep were artificially infected with L3 larvae of Teladorsagia (Ostertagia) circumcincta and Trichostrongylus colubriformis and efficacy was measured by total worm counts in the treatment group compared to the control group following administration of treatment.
as §2

[2] = test system: Trichostrongylus colubriformis; assay: as above; conditions: for % efficacy (arithmetic mean): doses as the 4th table, Day 15
Method: as §3, §2

Teladorsagia trifurcata = assay: as above; conditions: for % efficacy (arithmetic mean): doses as the 4th table, Day 15, NEG = negative efficacy, mean count higher than control
Method: as §3, §2

[3] = Example 3, resistant Haemonchus contortus
[4] = Example 3, resistant Trich. colubriformis
[5] = Example 3, resistant Teladorsagia spp (total)
[6] = Example 2, resistant Teladorsagia circumcincta
[7] = Example 2, resistant Trichostrongylus colubriformis
[8] = Example 2, Teladorsagia trifurcata
[9] = Example 3, resistant Haemonchus contortus, per os once Day 0 (2-DOPH 2 + abamectin 0.2; albendazole 3.8; levamisole 8; ivermectin 0.2 mg/kg), necropsy Day 15
[10] = Example 3, resistant Trich. colubriformis, per os once Day 0 (2-DOPH 2 + abamectin 0.2; albendazole 3.8; levamisole 8; ivermectin 0.2 mg/kg), necropsy Day 15
[11] = Example 3, resistant Teladorsagia spp (total), per os once Day 0 (2-DOPH 2 + abamectin 0.2; albendazole 3.8; levamisole 8; ivermectin 0.2 mg/kg), necropsy Day 15
[12] = Example 2, resistant Teladorsagia circumcincta, per os once Day 0 (2-DOPH 2 + abamectin 0.2; albendazole 3.8; levamisole 8; ivermectin 0.2 mg/kg), necropsy Day 15
[13] = Example 2, resistant Trichostrongylus colubriformis, per os once Day 0 (2-DOPH 2 + abamectin 0.2; albendazole 3.8; levamisole 8; ivermectin 0.2 mg/kg), necropsy Day 15
[14] = Example 2, Teladorsagia trifurcata, per os once Day 0 (2-DOPH 2 + abamectin 0.2; albendazole 3.8; levamisole 8; ivermectin 0.2 mg/kg), necropsy Day 15

**Q.** What does the source list for `CCCSc1ccc2nc(NC(=O)OC)[nH]c2c1` [Albendazole]?
**A.** % efficacy (arithmetic mean) (Haemonchus contortus; [3]): 80.57%; Arithmetic Mean (total worm count) (Haemonchus contortus; in vivo): 164.0; Prevalence (total worm count) (Haemonchus contortus; in vivo): 8/10; Range (total worm count) (Haemonchus contortus; in vivo): 0-320; % efficacy (arithmetic mean) (Trich. colubriformis; [4]): 25.00%; Arithmetic Mean (total worm count) (Trich. colubriformis; in vivo): 3828.0; Prevalence (total worm count) (Trich. colubriformis; in vivo): 10/10; Range (total worm count) (Trich. colubriformis; in vivo): 2600-5160; % efficacy (arithmetic mean) (Teladorsagia spp (total); [5]): 58.16%; Arithmetic Mean (total worm count) (Teladorsagia spp (total); in vivo): 590.0; Prevalence (total worm count) (Teladorsagia spp (total); in vivo): 10/10; Range (total worm count) (Teladorsagia spp (total); in vivo): 160-1200; % efficacy (arithmetic mean) [1, 6]: NEG^; Arithmetic Mean (total worm count) ([1]; in vivo): 2184.4; Prevalence (total worm count) ([1]; in vivo): 10/10; Range (total worm count) ([1]; in vivo): 80-3708; % efficacy (arithmetic mean) [2, 7]: 56.44%; Arithmetic Mean (total worm count) ([2]; in vivo): 1812.0; Prevalence (total worm count) ([2]; in vivo): 10/10; Range (total worm count) ([2]; in vivo): 1320-2660; % efficacy (arithmetic mean) (Teladorsagia trifurcata; [8]): NEG^; Arithmetic Mean (total worm count) (Teladorsagia trifurcata; in vivo): 281.6; Prevalence (total worm count) (Teladorsagia trifurcata; in vivo): 7/10; Range (total worm count) (Teladorsagia trifurcata; in vivo): 0-712

**Q.** With Ivermectin as the molecule, how does the “% efficacy (arithmetic mean)” value (Haemonchus contortus; [3]) read?
**A.** Its value is 47.63%.

**Q.** And the “Arithmetic Mean (total worm count)” value (Haemonchus contortus; in vivo)?
**A.** Its value is 442.0.

**Q.** What about the “Prevalence (total worm count)” value (Haemonchus contortus; in vivo) of the same molecule?
**A.** The value was 8/10.

**Q.** What about the “Range (total worm count)” value (Haemonchus contortus; in vivo) of the same molecule?
**A.** Its value is 0-940.

**Q.** And the “% efficacy (arithmetic mean)” value (Trich. colubriformis; [4])?
**A.** Its value is 11.63%.

**Q.** And the “Arithmetic Mean (total worm count)” value (Trich. colubriformis; in vivo)?
**A.** Its value is 4510.0.

**Q.** And the “Prevalence (total worm count)” value (Trich. colubriformis; in vivo)?
**A.** The value was 10/10.

**Q.** What about the “Range (total worm count)” value (Trich. colubriformis; in vivo) of the same molecule?
**A.** The value was 3140-5920.

**Q.** And the “% efficacy (arithmetic mean)” value (Teladorsagia spp (total); [5])?
**A.** The value was “NEG”.

**Q.** And the “Arithmetic Mean (total worm count)” value (Teladorsagia spp (total); in vivo)?
**A.** Its value is 1680.0.

**Q.** And the “Prevalence (total worm count)” value (Teladorsagia spp (total); in vivo)?
**A.** Its value is 10/10.

**Q.** And the “Range (total worm count)” value (Teladorsagia spp (total); in vivo)?
**A.** The value was 280-3800.

**Q.** What about the “% efficacy (arithmetic mean)” value [1, 6] of the same molecule?
**A.** The value was “NEG^”.

**Q.** And the “% efficacy (arithmetic mean)” value ([1]; Example 2, resistant Teladorsagia circumcincta, listed as ivermectin)?
**A.** Its value is “zero”.

**Q.** And the “Arithmetic Mean (total worm count)” value ([1]; in vivo)?
**A.** The value was 2093.2.

**Q.** What about the “Prevalence (total worm count)” value ([1]; in vivo) of the same molecule?
**A.** Its value is 10/10.

**Q.** What about the “Range (total worm count)” value ([1]; in vivo) of the same molecule?
**A.** The value was 680-3600.

**Q.** And the “% efficacy (arithmetic mean)” value [2, 7]?
**A.** Its value is 55.29%.

**Q.** What about the “Arithmetic Mean (total worm count)” value ([2]; in vivo) of the same molecule?
**A.** Its value is 1860.0.

**Q.** What about the “Prevalence (total worm count)” value ([2]; in vivo) of the same molecule?
**A.** Its value is 10/10.

**Q.** What about the “Range (total worm count)” value ([2]; in vivo) of the same molecule?
**A.** Its value is 400-4060.

**Q.** And the “% efficacy (arithmetic mean)” value (Teladorsagia trifurcata; [8])?
**A.** The value was 15.49%.

**Q.** And the “Arithmetic Mean (total worm count)” value (Teladorsagia trifurcata; in vivo)?
**A.** The value was 194.8.

**Q.** What about the “Prevalence (total worm count)” value (Teladorsagia trifurcata; in vivo) of the same molecule?
**A.** Its value is 7/10.

**Q.** And the “Range (total worm count)” value (Teladorsagia trifurcata; in vivo)?
**A.** Its value is 0-459.

**Q.** Which “% efficacy (arithmetic mean)” value (Haemonchus contortus; [3]) does the source give for `c1ccc([C@H]2CN3CCSC3=N2)cc1` [Levamisole] here?
**A.** The value was 99.76%.

**Q.** And the “Arithmetic Mean (total worm count)” value (Haemonchus contortus; [9])?
**A.** The value was 2.0.

**Q.** And the “Prevalence (total worm count)” value (Haemonchus contortus; [9])?
**A.** The value was 1/10.

**Q.** What about the “Range (total worm count)” value (Haemonchus contortus; [9]) of the same molecule?
**A.** The value was 0-20.

**Q.** What about the “% efficacy (arithmetic mean)” value (Trich. colubriformis; [4]) of the same molecule?
**A.** Its value is 15.34%.

**Q.** What about the “Arithmetic Mean (total worm count)” value (Trich. colubriformis; [10]) of the same molecule?
**A.** Its value is 4320.7.

**Q.** And the “Prevalence (total worm count)” value (Trich. colubriformis; [10])?
**A.** The value was 10/10.

**Q.** What about the “Range (total worm count)” value (Trich. colubriformis; [10]) of the same molecule?
**A.** The value was 2120-5800.

**Q.** What about the “% efficacy (arithmetic mean)” value (Teladorsagia spp (total); [5]) of the same molecule?
**A.** The value was 96.31%.

**Q.** What about the “Arithmetic Mean (total worm count)” value (Teladorsagia spp (total); [11]) of the same molecule?
**A.** The value was 52.0.

**Q.** What about the “Prevalence (total worm count)” value (Teladorsagia spp (total); [11]) of the same molecule?
**A.** Its value is 8/10.

**Q.** What about the “Range (total worm count)” value (Teladorsagia spp (total); [11]) of the same molecule?
**A.** Its value is 0-160.

**Q.** What about the “% efficacy (arithmetic mean)” value [1, 6] of the same molecule?
**A.** Its value is 82.67%.

**Q.** And the “Arithmetic Mean (total worm count)” value [1, 12]?
**A.** Its value is 292.8.

**Q.** And the “Prevalence (total worm count)” value [1, 12]?
**A.** The value was 7/9.

**Q.** What about the “Range (total worm count)” value [1, 12] of the same molecule?
**A.** The value was 0-1020.

**Q.** And the “% efficacy (arithmetic mean)” value [2, 7]?
**A.** The value was 84.31%.

**Q.** And the “Arithmetic Mean (total worm count)” value [2, 13]?
**A.** The value was 652.6.

**Q.** What about the “Prevalence (total worm count)” value [2, 13] of the same molecule?
**A.** Its value is 9/9.

**Q.** What about the “Range (total worm count)” value [2, 13] of the same molecule?
**A.** Its value is 300-1500.

**Q.** What about the “% efficacy (arithmetic mean)” value (Teladorsagia trifurcata; [8]) of the same molecule?
**A.** The value was 84.08%.

**Q.** What about the “Arithmetic Mean (total worm count)” value (Teladorsagia trifurcata; [14]) of the same molecule?
**A.** Its value is 36.7.

**Q.** And the “Prevalence (total worm count)” value (Teladorsagia trifurcata; [14])?
**A.** Its value is 4/9.

**Q.** And the “Range (total worm count)” value (Teladorsagia trifurcata; [14])?
**A.** The value was 0-180.
